row,Structure (SMILES),logP
1,CC=CC#CC#CC=CC(=O)OC,2.45
2,C=CC#Cc1ccc(-c2cccs2)s1,5.15
3,CC=CC#CC#Cc1ccccc1,4.76
4,c1csc(-c2ccc(-c3cccs3)s2)c1,5.57
5,CC#CC#CC#CC=CC(=O)OC,3.85
6,CC#CC#CC#Cc1ccccc1,4.91
7,CC=CC#CC=C1C=CC(=O)O1,2.09
8,CC=CC#CC#CC#CC=CC(Cl)CO (stereo unspecified),3.91
9,O=CC=CC#CC#Cc1ccccc1,3.09
10,OCC=CC#CC#Cc1ccccc1,2.48
11,CC#CC#Cc1ccc(C#CC(Cl)COC(C)=O)s1 (stereo unspecified),4.6
